Data on 32 molecules can be found in ChEMBL document CHEMBL2331176, “1,5-Diphenylpenta-2,4-dien-1-ones as potent and selective monoamine oxidase-B inhibitors” (Eur J Med Chem, 2013).

For series [1], the species on record is Homo sapiens. The series can be described thus: Selectivity index, ratio of IC50 for recombinant human MAO-A expressed in baculovirus infected BT1-TN-5B1-4 cells to recombinant human MAO-B expressed in baculovirus infected BT1-TN-5B1-4 cells.
The target in series [2] is T1, Amine oxidase [flavin-containing] B (Homo sapiens, UniProt P27338).
T1 sequence (P27338 whole entry): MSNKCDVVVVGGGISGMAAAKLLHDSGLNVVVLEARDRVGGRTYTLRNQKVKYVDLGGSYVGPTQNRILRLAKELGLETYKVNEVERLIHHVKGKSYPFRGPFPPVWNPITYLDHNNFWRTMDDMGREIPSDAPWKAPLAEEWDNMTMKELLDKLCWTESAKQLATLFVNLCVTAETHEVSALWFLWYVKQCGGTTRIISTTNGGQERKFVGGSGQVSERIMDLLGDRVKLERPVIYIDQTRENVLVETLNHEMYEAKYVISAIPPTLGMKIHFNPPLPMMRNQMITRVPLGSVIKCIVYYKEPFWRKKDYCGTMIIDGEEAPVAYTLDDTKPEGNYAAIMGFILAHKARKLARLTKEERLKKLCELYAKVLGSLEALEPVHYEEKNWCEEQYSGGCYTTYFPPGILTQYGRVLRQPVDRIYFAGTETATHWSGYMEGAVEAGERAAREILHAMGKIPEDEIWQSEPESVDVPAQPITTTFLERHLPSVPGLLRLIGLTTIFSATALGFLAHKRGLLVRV
Kind of series: biochemical. It is filed as cell-based.
Description: Inhibition of recombinant human MAO-B expressed in baculovirus infected BT1-TN-5B1-4 cells assessed as inhibition of production of hydrogen peroxide from p-tyramine after 15 mins by Amplex Red assay

Series [3] has as its target T2, Amine oxidase [flavin-containing] A (Homo sapiens, UniProt P21397).
T2 sequence (P21397 whole entry): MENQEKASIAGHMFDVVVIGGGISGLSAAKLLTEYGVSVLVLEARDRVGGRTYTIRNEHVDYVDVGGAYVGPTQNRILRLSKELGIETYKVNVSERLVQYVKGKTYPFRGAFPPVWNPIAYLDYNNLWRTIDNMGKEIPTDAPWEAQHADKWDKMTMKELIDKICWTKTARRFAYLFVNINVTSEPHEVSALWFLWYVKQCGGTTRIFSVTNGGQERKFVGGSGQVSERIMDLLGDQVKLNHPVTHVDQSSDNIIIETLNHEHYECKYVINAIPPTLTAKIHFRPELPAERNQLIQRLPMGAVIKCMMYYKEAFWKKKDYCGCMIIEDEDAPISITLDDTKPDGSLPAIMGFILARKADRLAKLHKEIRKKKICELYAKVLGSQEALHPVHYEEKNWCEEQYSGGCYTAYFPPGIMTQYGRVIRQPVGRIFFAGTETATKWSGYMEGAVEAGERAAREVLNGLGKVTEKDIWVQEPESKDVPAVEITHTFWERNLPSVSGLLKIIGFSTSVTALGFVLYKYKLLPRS
The series can be described thus: Inhibition of recombinant human MAO-A expressed in baculovirus infected BT1-TN-5B1-4 cells assessed as inhibition of production of hydrogen peroxide from p-tyramine after 15 mins by Amplex Red assay.

Series [4] has as its target T2, Amine oxidase [flavin-containing] A. Kind of series: Inhibition of recombinant human MAO-A expressed in baculovirus infected BT1-TN-5B1-4 cells assessed as inhibition of production of hydrogen peroxide from p-tyramine at 100 uM after 15 mins by Amplex Red assay. The settings on record: 0.25 h; for inhibition (INH): 100 µM.
In series [5] the target is T1, Amine oxidase [flavin-containing] B. Kind of series: Inhibition of recombinant human MAO-B expressed in baculovirus infected BT1-TN-5B1-4 cells assessed as inhibition of production of hydrogen peroxide from p-tyramine at 100 uM after 15 mins by Amplex Red assay. The conditions noted are these: 0.25 h; for inhibition (INH): 100 µM.
Series [6] shares this target. Kind of series: Inhibition of recombinant human MAO-B expressed in baculovirus infected BT1-TN-5B1-4 cells assessed as inhibition of production of hydrogen peroxide from p-tyramine at 1 mM after 15 mins by Amplex Red assay. The settings on record: 0.25 h, 1000 µM.

Turning to `COc1cc(/C=C/C(O)=C/C(=O)c2c(O)cccc2OC)ccc1O`, the Ratio IC50 in series [1] turned out to be 2.2. The IC50 in series [2] was 1680 nM; in series [3], 3760 nM.

As for `COc1cc(/C=C/C=C/C(=O)c2ccccc2O)ccc1O`, the Ratio IC50 in series [1] stood at 3.1. For the same molecule, the IC50 in series [2] is 502 nM; in series [3], 1560 nM.

For the molecule `O=C(/C=C/C=C/c1ccccc1)c1ccccc1O`, the Ratio IC50 in series [1] is more than 948. In series [2], this molecule displayed an IC50 of 106 nM. For the same molecule, the “inhibition (INH)” value in series [4] is listed as “Not Active”.

Turning to `COc1cc(/C=C/C=C/C(=O)c2c(O)cccc2O)ccc1O`, in series [1], the Ratio IC50 was 1.5. Moreover, the IC50 was 969 nM in series [2] and 1430 nM in series [3].

`COc1ccc(/C=C/C=C/C(=O)c2ccccc2O)cc1`: the Ratio IC50 in series [1] was more than 55. In series [2], this molecule yielded an IC50 of 1810 nM. Also, the inhibition at 100 µM in series [4] turned out to be 40%.

`COc1ccc(/C=C/C(O)=C/C(=O)c2ccccc2O)cc1OC`: the “inhibition (INH)” value in series [5] and in series [4] was “Not Active” in each case.

Consider `O=C(NCCN1CCOCC1)c1ccc(Cl)cc1` [MOCLOBEMIDE], for which the “inhibition (INH)” value in series [6] is recorded as “Not Active”.

`Cc1ccc(/C=C/C(O)=C/C(=O)c2ccccc2O)cc1`: the Ratio IC50 in series [1] was more than 27. In series [2], this molecule returned an IC50 of 3770 nM. In addition, in series [4], the “inhibition (INH)” value is recorded as “Not Active”.

With `O=C(/C=C/c1ccccc1)c1cc(F)ccc1O`, in series [1], the Ratio IC50 is more than 150. The same molecule showed an IC50 in series [2] of 668 nM. The inhibition at 100 µM in series [4] was 40%.

In the case of `O=C(/C=C/C=C/c1ccc(Cl)cc1)c1ccc(O)cc1O`, the Ratio IC50 in series [1] amounted to 1350. In addition, the IC50 in series [2] was 11.3 nM; in series [3] it was 15400 nM.

Regarding `O=C(/C=C/C=C/c1ccc([N+](=O)[O-])cc1)c1cc(Cl)ccc1O`, the Ratio IC50 in series [1] is more than 93. The molecule also came in with an IC50 in series [2] of 1080 nM. Moreover, the “inhibition (INH)” value in series [4] is reported as “Not Active”.

Consider `COc1cc(/C=C/C=C/C(=O)c2c(O)cccc2OC)ccc1O`, for which the Ratio IC50 in series [1] came out at 2.1. The IC50 amounted to 486 nM in series [2] and 1030 nM in series [3].

Turning to `O=C(/C=C/C=C/c1ccc(Cl)cc1)c1cc(Cl)ccc1O`, the Ratio IC50 in series [1] was more than 68. Moreover, in series [2], the IC50 was determined as 1460 nM. In series [4], the “inhibition (INH)” value is on record as “Not Active”.

For the molecule `COc1ccc(/C=C/C=C/C(=O)c2c(O)cccc2O)cc1OC`, in series [1], the Ratio IC50 turned out to be 17. The IC50 in series [2] amounted to 1450 nM; in series [3], 25200 nM.

Consider `O=C(/C=C/C=C/c1ccc([N+](=O)[O-])cc1)c1ccccc1O`, for which the Ratio IC50 in series [1] was more than 624. This molecule yielded an IC50 in series [2] of 160 nM. In addition, in series [4], the “inhibition (INH)” value is “Not Active”.

For the molecule `O=C(/C=C/C=C/c1ccccc1)c1cc(F)ccc1O`, the Ratio IC50 in series [1] was more than 1320. In series [2], this molecule had an IC50 of 75.8 nM. Further, in series [4], the “inhibition (INH)” value is “Not Active”.

For `O=C(/C=C/C=C/c1ccccc1)c1cc(Cl)ccc1O`, the Ratio IC50 in series [1] was more than 1830. The molecule further registered an IC50 in series [2] of 54.8 nM. Besides, in series [4], the “inhibition (INH)” value is “Not Active”.

With `O=C(/C=C(O)/C=C/c1ccc(Cl)cc1)c1ccccc1O`, in series [5], the inhibition at 100 µM worked out at 40%. Moreover, the “inhibition (INH)” value in series [4] was “Not Active”.

For the molecule `O=C(/C=C(O)/C=C/c1ccc([N+](=O)[O-])cc1)c1ccccc1O`, the Ratio IC50 in series [1] is more than 37. This molecule came in with an IC50 in series [2] of 2670 nM. The “inhibition (INH)” value in series [4] is listed as “Not Active”.

As to `O=C(/C=C(O)/C=C/c1ccc(O)c(O)c1)c1ccccc1O`, the Ratio IC50 in series [1] is 0.66. Moreover, the IC50 in series [2] was determined as 654 nM; in series [3] it was 431 nM.

With `O=C(/C=C(O)/C=C/c1ccccc1)c1ccccc1O`, the Ratio IC50 in series [1] was more than 86. Further, in series [2], the IC50 stood at 1160 nM. In addition, in series [4], the “inhibition (INH)” value was “Not Active”.

With `COc1ccc(/C=C/C=C/C(=O)c2cc(Cl)ccc2O)cc1`, in series [1], the Ratio IC50 is more than 653. In addition, in series [2], half-maximal inhibition (IC50) required 153 nM. In addition, the “inhibition (INH)” value in series [4] was “Not Active”.

Regarding `O=C(/C=C/C=C/c1ccc(Cl)cc1)c1ccccc1O`, the Ratio IC50 in series [1] is 44. Also, the IC50 in series [2] is 860 nM; in series [3], 37700 nM.

Consider `COc1ccc(/C=C/C(O)=C/C(=O)c2c(O)cccc2OC)cc1OC`, for which, in series [5], the “inhibition (INH)” value is on record as “Not Active”. Also, the inhibition at 100 µM in series [4] worked out at 40%.

For the molecule `O=C(/C=C(O)/C=C/c1ccccc1)c1cc(F)ccc1O`, the Ratio IC50 in series [1] was more than 1980. This molecule gave an IC50 in series [2] of 50.4 nM. Besides, the “inhibition (INH)” value in series [4] was “Not Active”.

On to `COc1ccc(/C=C/C(O)=C/C(=O)c2ccccc2O)cc1`, for which the inhibition at 100 µM in series [5] stood at 40%. In addition, the “inhibition (INH)” value in series [4] is given as “Not Active”.

Regarding `O=C(/C=C(O)/C=C/c1ccc(Cl)cc1)c1cc(Cl)ccc1O`, the “inhibition (INH)” value in series [5] and in series [4] was “Not Active” throughout.

Take `COc1ccc(/C=C/C=C/C(=O)c2cc(F)ccc2O)cc1`: the Ratio IC50 in series [1] is more than 138. The molecule also returned an IC50 in series [2] of 726 nM. In series [4], the “inhibition (INH)” value is “Not Active”.

On to `COc1ccc(C(=O)/C=C/C=C/c2ccc(Cl)cc2)c(O)c1`, for which, in series [1], the Ratio IC50 is more than 22200. For the same molecule, in series [2], the IC50 was determined as 4.51 nM. Further, the “inhibition (INH)” value in series [4] is “Not Active”.

With `COc1ccc(/C=C/C=C/C(=O)c2ccccc2O)cc1OC`, the Ratio IC50 in series [1] is more than 6.8. In series [2], this molecule came in with an IC50 of 14600 nM. The inhibition at 100 µM in series [4] amounted to 40%.

For the molecule `O=C(/C=C(O)/C=C/c1ccc(O)cc1)c1ccccc1O`, in series [1], the Ratio IC50 turned out to be 57. Besides, the IC50 in series [2] worked out at 26.5 nM; in series [3], 1520 nM.

As to `COc1ccc(/C=C/C=C/C(=O)c2c(O)cccc2OC)cc1OC`, the “inhibition (INH)” value in series [5] was “Not Active”. Also, the inhibition at 100 µM in series [4] worked out at 40%.
